From US20170190705A1, “Compositions and Methods for Inhibiting BMP” (THE BRIGHAM AND WOMAN'S HOSPITAL, INC., priority 2014, published 2017) come the findings set out here.

Format in all cases: biochemical
Experiment [1] addresses CK1-γ2 (Homo sapiens, UniProt P78368). Kind of experiment: Kinome profiling CK1-γ2. Conditions: read-out: Inhibitory activity CK1-γ2; for inhibition at 0.1 µM: 100 nM. As to the method:
(§1) . The kinome-wide selectivity was determined following the methods previously reported by Mohedas et al., ACS Chem Biol 2013, 8, 1291-1302 and Sanvitale et al., PLoS One 2013, 8, e62721.

Experiment [2] deals with T1, BMX (Homo sapiens, UniProt P51813).
T1 sequence (P51813 1-675): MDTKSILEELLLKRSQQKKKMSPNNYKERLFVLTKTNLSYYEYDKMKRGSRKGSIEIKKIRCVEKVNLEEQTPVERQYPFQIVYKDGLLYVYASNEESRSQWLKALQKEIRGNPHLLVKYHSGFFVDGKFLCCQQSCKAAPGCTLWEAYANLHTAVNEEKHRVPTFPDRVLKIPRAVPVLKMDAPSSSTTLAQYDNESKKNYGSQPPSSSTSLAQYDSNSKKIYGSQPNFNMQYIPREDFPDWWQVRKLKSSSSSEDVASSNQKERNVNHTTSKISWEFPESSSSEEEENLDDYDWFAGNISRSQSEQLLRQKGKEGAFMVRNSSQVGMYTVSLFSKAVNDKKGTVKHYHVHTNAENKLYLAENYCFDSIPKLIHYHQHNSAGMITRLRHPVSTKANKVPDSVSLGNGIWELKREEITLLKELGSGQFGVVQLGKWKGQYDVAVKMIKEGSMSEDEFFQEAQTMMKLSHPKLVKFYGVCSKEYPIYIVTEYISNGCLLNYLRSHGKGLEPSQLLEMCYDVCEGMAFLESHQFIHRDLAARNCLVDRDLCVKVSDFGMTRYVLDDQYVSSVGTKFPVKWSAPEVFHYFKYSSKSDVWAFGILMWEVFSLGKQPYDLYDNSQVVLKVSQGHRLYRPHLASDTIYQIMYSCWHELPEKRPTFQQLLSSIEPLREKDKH
In words: Kinome profiling BMX. Conditions: read-out: Inhibitory activity BMX; for inhibition at 0.1 µM: 100 nM. As to the method:
as §1

Experiment [3] has as its target CAMK2α (Homo sapiens, UniProt Q9UQM7). Kind of experiment: Kinome profiling CAMK2α. Conditions: read-out: Inhibitory activity CAMK2α; for inhibition at 0.1 µM: 100 nM. The method, then: as §1
For experiment [4], the target named is EPH-A2 (Homo sapiens, UniProt P29317). Kind of experiment: Kinome profiling EPH-A2. Conditions: read-out: Inhibitory activity EPH-A2; for inhibition at 0.1 µM: 100 nM. The method, then: as §1
Sequence of EPH-A2 (P29317 24-976): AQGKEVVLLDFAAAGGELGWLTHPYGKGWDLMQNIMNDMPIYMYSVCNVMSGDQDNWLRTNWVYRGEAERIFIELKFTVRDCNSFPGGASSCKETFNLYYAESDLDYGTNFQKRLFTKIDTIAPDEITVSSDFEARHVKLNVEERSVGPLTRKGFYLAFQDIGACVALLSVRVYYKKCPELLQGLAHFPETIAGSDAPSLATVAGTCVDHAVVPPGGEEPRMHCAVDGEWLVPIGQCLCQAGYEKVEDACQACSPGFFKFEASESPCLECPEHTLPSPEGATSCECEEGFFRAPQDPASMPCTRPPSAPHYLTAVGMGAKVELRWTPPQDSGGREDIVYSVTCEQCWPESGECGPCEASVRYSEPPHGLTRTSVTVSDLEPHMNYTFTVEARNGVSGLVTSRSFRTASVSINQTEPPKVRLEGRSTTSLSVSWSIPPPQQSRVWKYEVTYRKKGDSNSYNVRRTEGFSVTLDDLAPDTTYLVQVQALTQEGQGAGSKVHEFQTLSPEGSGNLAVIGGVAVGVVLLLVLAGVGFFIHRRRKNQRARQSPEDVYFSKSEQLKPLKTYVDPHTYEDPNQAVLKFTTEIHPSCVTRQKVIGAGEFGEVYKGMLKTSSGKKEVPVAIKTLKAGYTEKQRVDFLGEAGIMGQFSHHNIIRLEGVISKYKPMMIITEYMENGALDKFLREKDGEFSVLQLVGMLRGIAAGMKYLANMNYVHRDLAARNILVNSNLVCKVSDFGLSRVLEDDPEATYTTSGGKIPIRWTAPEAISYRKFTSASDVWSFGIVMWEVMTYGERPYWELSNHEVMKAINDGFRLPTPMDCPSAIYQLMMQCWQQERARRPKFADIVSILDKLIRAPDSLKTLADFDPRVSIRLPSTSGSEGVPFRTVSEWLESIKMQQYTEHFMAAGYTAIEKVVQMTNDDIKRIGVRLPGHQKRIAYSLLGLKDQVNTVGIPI
Experiment [5] concerns the target AKT1 (Homo sapiens, UniProt P31749). In words: Kinome profiling AKT1. The conditions noted are these: read-out: Inhibitory activity AKT1; for inhibition at 0.1 µM: 100 nM. The method, then:
as §1

Experiment [6] concerns the target CDK1/cyclinB (Homo sapiens, UniProt P06493). Kind of experiment: Kinome profiling CDK1/cyclinB. Conditions: read-out: Inhibitory activity CDK1/cyclinB; for inhibition at 0.1 µM: 100 nM. The method, then:
as §1

The target of experiment [7] is MARK1 (Homo sapiens, UniProt Q9P0L2). In words: Kinome profiling MARK1. The conditions noted are these: read-out: Inhibitory activity MARK1; for inhibition at 0.1 µM: 100 nM. The method, then: as §1
Sequence of MARK1 (Q9P0L2 whole entry): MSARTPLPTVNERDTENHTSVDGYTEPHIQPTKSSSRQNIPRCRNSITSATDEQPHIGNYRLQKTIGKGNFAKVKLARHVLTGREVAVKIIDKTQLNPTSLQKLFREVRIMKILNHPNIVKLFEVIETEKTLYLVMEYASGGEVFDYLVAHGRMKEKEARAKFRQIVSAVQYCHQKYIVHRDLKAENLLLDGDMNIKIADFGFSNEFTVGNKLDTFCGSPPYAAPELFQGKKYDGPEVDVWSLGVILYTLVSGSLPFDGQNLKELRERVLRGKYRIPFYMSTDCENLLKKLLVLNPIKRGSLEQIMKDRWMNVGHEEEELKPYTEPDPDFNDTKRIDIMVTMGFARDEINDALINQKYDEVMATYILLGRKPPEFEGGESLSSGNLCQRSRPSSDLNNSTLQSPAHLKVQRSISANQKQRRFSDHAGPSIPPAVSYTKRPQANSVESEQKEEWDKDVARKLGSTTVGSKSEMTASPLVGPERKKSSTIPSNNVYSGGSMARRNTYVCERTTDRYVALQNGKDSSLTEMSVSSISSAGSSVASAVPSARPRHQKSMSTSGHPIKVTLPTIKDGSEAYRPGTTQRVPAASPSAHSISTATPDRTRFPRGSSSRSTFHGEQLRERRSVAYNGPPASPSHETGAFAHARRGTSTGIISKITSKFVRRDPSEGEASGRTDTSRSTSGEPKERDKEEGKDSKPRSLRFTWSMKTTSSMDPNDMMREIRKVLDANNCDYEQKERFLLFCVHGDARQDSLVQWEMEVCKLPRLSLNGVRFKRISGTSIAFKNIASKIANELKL
Experiment [8] concerns the target T2, TEC (Homo sapiens, UniProt P42680).
T2 sequence (P42680 1-631): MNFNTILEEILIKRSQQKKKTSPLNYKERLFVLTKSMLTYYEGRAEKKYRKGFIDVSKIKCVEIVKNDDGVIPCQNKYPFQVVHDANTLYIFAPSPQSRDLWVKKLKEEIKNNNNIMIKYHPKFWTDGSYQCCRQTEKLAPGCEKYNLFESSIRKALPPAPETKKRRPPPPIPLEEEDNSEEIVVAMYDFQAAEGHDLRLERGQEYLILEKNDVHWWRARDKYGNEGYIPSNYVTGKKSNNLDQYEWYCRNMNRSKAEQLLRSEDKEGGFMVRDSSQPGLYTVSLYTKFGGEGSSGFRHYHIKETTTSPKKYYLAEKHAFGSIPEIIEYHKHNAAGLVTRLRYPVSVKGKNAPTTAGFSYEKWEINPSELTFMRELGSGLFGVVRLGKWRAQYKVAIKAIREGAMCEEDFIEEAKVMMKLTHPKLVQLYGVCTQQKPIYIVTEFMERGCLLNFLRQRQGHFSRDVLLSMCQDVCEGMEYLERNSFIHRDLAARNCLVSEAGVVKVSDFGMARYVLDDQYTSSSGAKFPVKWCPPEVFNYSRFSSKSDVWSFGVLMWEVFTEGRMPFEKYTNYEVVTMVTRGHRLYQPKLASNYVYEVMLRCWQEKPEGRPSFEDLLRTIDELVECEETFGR
In words: Kinome profiling TEC. The conditions noted are these: read-out: Inhibitory activity TEC; for inhibition at 0.1 µM: 100 nM. The method, then:
as §1

The target of experiment [9] is MEK1 (Homo sapiens, UniProt Q02750). In words: Kinome profiling MEK1. The conditions noted are these: read-out: Inhibitory activity MEK1; for inhibition at 0.1 µM: 100 nM. As to the method:
as §1

For experiment [10], the target named is T3, TNK1 (Homo sapiens, UniProt Q13470).
T3 sequence (Q13470 1-666): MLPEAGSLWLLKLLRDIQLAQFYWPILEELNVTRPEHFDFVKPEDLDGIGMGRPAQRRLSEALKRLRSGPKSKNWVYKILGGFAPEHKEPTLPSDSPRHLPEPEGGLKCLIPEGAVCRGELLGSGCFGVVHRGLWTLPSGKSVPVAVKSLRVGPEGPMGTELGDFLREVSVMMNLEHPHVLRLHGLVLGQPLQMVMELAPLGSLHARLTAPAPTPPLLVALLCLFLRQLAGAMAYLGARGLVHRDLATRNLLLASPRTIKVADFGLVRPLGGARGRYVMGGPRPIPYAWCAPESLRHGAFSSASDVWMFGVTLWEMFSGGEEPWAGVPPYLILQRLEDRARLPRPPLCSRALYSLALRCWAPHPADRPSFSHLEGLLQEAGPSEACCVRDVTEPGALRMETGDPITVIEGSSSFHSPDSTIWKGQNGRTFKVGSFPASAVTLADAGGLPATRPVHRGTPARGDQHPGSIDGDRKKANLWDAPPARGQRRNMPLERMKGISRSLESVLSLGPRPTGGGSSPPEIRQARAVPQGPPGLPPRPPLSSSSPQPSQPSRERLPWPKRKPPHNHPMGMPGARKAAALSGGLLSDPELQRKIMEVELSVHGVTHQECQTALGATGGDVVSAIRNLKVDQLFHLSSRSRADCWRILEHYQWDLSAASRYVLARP
In words: Kinome profiling TNK1. The conditions noted are these: read-out: Inhibitory activity TNK1; for inhibition at 0.1 µM: 100 nM. The method, then: as §1

The structures appear in SMILES notation.

Sequence of CK1-γ2 (P78368 whole entry): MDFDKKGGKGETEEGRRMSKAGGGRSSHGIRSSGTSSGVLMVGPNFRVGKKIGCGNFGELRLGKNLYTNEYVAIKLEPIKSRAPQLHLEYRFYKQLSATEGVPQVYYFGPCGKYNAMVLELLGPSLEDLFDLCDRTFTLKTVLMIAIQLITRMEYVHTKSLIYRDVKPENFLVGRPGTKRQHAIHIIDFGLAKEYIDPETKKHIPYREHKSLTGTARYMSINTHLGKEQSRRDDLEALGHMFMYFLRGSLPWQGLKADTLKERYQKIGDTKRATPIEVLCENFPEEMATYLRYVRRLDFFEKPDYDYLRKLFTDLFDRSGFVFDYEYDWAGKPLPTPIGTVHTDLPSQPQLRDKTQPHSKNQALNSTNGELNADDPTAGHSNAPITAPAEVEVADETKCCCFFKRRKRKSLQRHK
Sequence of CAMK2α (Q9UQM7 whole entry): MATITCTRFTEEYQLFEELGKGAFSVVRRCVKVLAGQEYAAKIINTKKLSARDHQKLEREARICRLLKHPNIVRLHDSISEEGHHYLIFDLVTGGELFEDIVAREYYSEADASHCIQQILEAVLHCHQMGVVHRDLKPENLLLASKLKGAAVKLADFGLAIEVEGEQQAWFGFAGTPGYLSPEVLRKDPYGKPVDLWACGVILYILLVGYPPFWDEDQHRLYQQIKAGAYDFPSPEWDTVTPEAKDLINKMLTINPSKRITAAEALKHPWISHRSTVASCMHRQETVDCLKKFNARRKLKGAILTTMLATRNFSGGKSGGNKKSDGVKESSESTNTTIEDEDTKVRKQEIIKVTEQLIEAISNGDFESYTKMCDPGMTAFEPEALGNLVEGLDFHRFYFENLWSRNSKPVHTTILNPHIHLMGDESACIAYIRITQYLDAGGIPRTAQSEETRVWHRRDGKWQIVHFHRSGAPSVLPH
Sequence of MEK1 (Q02750 whole entry): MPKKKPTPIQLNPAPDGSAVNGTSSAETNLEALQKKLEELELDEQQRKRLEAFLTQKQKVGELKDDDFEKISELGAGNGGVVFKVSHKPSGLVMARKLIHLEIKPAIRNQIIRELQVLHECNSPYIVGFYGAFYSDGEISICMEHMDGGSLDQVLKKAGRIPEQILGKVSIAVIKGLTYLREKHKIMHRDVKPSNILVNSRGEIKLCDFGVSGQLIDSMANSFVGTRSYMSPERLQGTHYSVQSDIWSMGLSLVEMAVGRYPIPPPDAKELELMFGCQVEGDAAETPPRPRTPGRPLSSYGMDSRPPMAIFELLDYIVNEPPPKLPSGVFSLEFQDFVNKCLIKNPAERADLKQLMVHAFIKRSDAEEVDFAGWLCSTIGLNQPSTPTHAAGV
Sequence of AKT1 (P31749 whole entry): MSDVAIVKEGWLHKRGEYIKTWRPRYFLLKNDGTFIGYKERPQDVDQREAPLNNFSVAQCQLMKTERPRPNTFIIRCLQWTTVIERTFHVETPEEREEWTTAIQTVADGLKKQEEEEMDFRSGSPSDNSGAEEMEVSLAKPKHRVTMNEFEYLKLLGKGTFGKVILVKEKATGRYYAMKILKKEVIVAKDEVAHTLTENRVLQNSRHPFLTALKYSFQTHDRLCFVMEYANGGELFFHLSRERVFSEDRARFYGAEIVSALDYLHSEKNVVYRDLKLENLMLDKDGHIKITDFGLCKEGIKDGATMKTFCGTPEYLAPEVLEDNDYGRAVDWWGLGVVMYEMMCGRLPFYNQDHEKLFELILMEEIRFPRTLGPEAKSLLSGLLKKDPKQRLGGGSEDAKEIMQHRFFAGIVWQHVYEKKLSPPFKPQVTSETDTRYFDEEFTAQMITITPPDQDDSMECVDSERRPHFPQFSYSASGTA
Sequence of CDK1/cyclinB (P06493 whole entry): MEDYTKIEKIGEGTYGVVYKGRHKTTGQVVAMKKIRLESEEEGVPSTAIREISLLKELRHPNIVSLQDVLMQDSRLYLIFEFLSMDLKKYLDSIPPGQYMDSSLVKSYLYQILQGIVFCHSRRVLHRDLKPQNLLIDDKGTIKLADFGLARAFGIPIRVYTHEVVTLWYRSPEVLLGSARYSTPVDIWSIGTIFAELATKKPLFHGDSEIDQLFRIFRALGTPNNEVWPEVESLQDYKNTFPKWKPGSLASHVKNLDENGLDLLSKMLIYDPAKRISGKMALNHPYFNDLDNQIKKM
Sequence of CDK1/cyclinB (P14635 whole entry partner): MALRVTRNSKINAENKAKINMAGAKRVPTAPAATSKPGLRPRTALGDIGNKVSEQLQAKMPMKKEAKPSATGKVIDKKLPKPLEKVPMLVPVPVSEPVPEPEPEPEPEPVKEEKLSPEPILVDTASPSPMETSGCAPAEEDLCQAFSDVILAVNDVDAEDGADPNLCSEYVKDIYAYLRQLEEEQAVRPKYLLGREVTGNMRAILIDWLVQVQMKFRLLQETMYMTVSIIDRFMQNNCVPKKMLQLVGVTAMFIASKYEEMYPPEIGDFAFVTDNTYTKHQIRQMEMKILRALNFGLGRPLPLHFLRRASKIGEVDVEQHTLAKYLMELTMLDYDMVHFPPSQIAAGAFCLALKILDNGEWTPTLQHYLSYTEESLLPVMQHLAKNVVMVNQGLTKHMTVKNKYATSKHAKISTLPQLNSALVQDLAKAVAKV

On to `COc1cc(-c2cc(-c3ccc(N4CCNCC4)cc3)cnc2C)cc(OC)c1OC` [Compound 10, 1-(4-(6-methyl-5-(3,4,5-trimethoxyphenyl)pyridin-3-yl)phenyl)piperazine], for which the inhibition at 0.1 µM is 1% in [1]; 7% in [2]; -1% in experiment [3]; -2% in experiment [4]; 0% in experiment [5]; 2% in experiment [6]. The inhibition at 0.1 µM in experiment [7] was 0%; in experiment [8], 0%; in experiment [9], 0%; in experiment [10], 5%. In addition, the inhibition at 1 µM in experiment [1] is 4%; in experiment [2] it was 11%; in experiment [3] it was -1%; in experiment [4], 1%; in [5] it was 0%; in experiment [6] it was 3%. Moreover, the inhibition at 1 µM in experiment [7] turned out to be 2%; in experiment [8] it was 0%; in [9] it was 2%; in [10] it was 2%.

For `COc1cc(-c2cc(-c3ccc(N4CCNCC4)cc3)cnc2N)cc(OC)c1OC` [Compound 15, 5-(4-(piperazin-1-yl)phenyl)-3-(3,4,5-trimethoxyphenyl)pyridin-2-amine], the inhibition at 0.1 µM in [1] is 3%; in [2], 5%; in [3], 1%; in [4], -3%; in experiment [5], 0%; in experiment [6] it was -1%. The inhibition at 0.1 µM in [7] came to 3%; in experiment [8], 5%; in experiment [9] it was 3%; in experiment [10], 2%. Besides, the inhibition at 1 µM in experiment [1] is 12%; in experiment [2] it was 30%; in experiment [3], -1%; in experiment [4] it was 4%; in experiment [5] it was 2%; in [6], 0%. In addition, the inhibition at 1 µM in [7] was 31%; in experiment [8] it was 24%; in [9], 6%; in experiment [10] it was 16%.
